Consider five molecules from PMC10449633 (Nature Chemical Biology, 2023).

For test [1], the system named is collagen antibody-induced arthritis in BALB/c mice. The experiment in a line: Anticollagen antibody-induced arthritis model, clinical scores. The format is in vivo, mouse. The note with it: individual mice.
The next test concerns the target T1, Sec61 (Homo sapiens, UniProt P61619).
T1 construct: endogenous in cells
The experiment in a line: cell-based. To be noted: for IC50: 24 h, range in brackets.

In test [2] the test system is SARS-CoV-2. The format is cell-based. The note with it: 48 h.
The test system of test [3] is SARS-CoV-2. The format is cell-based. To be noted: 48 h. The source holds these as a separate data set.
Test [4] has as its system SARS-CoV-2. The note with it: infected 48 h.

“And” between values parts separate entries of the source, which are not always exact repeats. Equal entries are not always repeated. Where two headings read alike, the source gives them in different places. Numbered stars: 1 amine (or outer) side, 2 acyl side, 3 side chain; on linkers, the order of the positions; unused ones are H or OH. Square brackets hold non-standard residues; d marks the D form. Peptide text beside a SMILES is read from it. NMeTrp(1-(4-Br-benzyl)) = CN[C@@H](Cc1cn(Cc2ccc(Br)cc2)c2ccccc12)C(=O)O; X3 = CCn1cc(C[C@@H](C(=O)[*:2])N(C)[*:1])c2ccccc21; Butanoyl(2R-oxy,4-CN) = N#CCC[C@@H](O)C(=O)O; Abu(4,4,4-F3) = N[C@@H](CC(F)(F)F)C(=O)O; NMeL = CN[C@@H](CC(C)C)C(=O)O; NMeA = CN[C@@H](C)C(=O)O

T1 sequence (P60059 whole entry): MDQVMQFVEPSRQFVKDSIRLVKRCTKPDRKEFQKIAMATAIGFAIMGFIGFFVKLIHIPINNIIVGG
T1 sequence (P61619 whole entry): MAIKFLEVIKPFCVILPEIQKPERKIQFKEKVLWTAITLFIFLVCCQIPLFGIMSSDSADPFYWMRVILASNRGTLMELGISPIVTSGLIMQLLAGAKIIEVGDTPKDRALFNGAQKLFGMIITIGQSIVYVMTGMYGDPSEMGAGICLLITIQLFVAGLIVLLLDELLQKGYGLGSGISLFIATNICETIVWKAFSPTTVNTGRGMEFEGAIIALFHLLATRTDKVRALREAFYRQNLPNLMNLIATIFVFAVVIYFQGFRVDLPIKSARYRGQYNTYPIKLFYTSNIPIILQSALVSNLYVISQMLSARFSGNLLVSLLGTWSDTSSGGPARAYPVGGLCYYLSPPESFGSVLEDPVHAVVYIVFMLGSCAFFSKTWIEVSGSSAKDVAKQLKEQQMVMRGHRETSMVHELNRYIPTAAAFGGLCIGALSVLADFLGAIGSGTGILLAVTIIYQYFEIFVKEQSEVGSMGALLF
T1 sequence (P60468 whole entry, further chain): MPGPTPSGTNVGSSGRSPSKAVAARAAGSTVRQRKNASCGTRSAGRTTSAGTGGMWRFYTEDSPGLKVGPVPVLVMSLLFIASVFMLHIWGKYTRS

`C[C@@H]1C[C@H]2[C@@H]3CCC4=CC(=O)C=C[C@]4(C)[C@@]3(F)[C@@H](O)C[C@]2(C)[C@@]1(O)C(=O)CO` [dexamethasone, reference compound]: the Clinical score in test [1] (1.5mg/kg IP QODx3, day 4) was 1 (5×) and 2 (4×) and 3; in test [1] (1.5mg/kg IP QODx3, day 5) it was 3 (5×) and 4 (2×) and 2 and 5 (2×); in test [1] (1.5mg/kg IP QODx3, day 6), 4 (2×) and 6 (6×) and 2 and 5; in test [1] (1.5mg/kg IP QODx3, day 7) it was 6 (4×) and 4 and 7 (3×) and 5 and 8; in test [1] (1.5mg/kg IP QODx3, day 10), 6 (3×) and 7 (2×) and 9 (2×) and 5 and 11 and 8; in test [1] (1.5mg/kg IP QODx3, day 11) it was 7 (3×) and 6 (2×) and 8 (2×) and 4 and 9 and 10. The Clinical score is 7 (4×) and 6 (2×) and 9 (3×) and 3 in test [1] (1.5mg/kg IP QODx3, day 12); 7 (3×) and 5 and 6 (2×) and 8 (2×) and 3 and 9 in test [1] (1.5mg/kg IP QODx3, day 13); 6 (2×) and 5 and 8 (2×) and 7 (2×) and 3 and 10 and 9 in test [1] (1.5mg/kg IP QODx3, day 14).
By IC50 is commonly meant the concentration needed to halve the response being measured. In the case of `CCn1cc(C[C@H]2C(=O)N[C@@H](CC(C)C)C(=O)N(C)[C@@H](C)C(=O)O[C@H](CCC#N)C(=O)N[C@@H](CC(F)(F)F)C(=O)N(C)[C@@H](CC(C)C)C(=O)N[C@@H](CC(F)(F)F)C(=O)N2C)c2ccccc21` [KZR-9508] (cyclo(L[NMeA][Butanoyl(2R-oxy,4-CN)][Abu(4,4,4-F3)][NMeL][Abu(4,4,4-F3)][X3])), at Sec61, the “selectivity compared with KZR-8445” value was “greater selectivity”. The IC50 on Sec61 (HER3 signal peptide-GLuc, read-out: IC50 (nM) HER3) is 103 nM and ~100 nM; on Sec61 (PD1 signal peptide-GLuc, read-out: IC50 (nM) PD1), 388 nM; at Sec61 (full-length IL-2-GLuc, read-out: IC50 (nM) IL-2), 1420 nM; on Sec61 (full-length TNFα-GLuc, read-out: IC50 (nM) TNFα), 908 nM; on Sec61 (prolactin signal peptide-GLuc, read-out: IC50 (nM) Prolactin), 25600 nM. In addition, the “loss of potency relative to KZR-8445” value on Sec61 (four of five GLuc reporters) was 10–20 fold.
As to `CC(C)C[C@@H]1NC(=O)[C@H](Cc2cn(Cc3ccc(Br)cc3)c3ccccc23)N(C)C(=O)[C@H](CC(F)(F)F)NC(=O)[C@H](CC(C)C)N(C)C(=O)[C@H](CC(F)(F)F)NC(=O)[C@@H](CCC#N)OC(=O)[C@H](C)N(C)C1=O` [KZR-508445] (cyclo(L[NMeA][Butanoyl(2R-oxy,4-CN)][Abu(4,4,4-F3)][NMeL][Abu(4,4,4-F3)][NMeTrp(1-(4-Br-benzyl))])), the Clinical score in test [1] (2.5 mg/kg IV QODx3, day 13) is 9 (2×) and 6 and 11 (2×) and 4 and 12 and 8 and 13 and 7; in test [1] (2.5 mg/kg IV QODx3, day 14) it was 9 (2×) and 5 and 11 (2×) and 2 and 12 and 10 and 13 and 7; in test [1] (5 mg/kg IV QODx3, day 13), 11 (2×) and 5 and 10 and 4 (3×) and 8 and 7 and 9; in test [1] (5 mg/kg IV QODx3, day 14) it was 12 and 5 and 8 (2×) and 4 (2×) and 3 and 6 and 9 and 11; in test [1] (10 mg/kg IV QODx3, day 13), 4 and 6 (3×) and 9 (2×) and 5 (2×) and 3 and 7; in test [1] (10 mg/kg IV QODx3, day 14), 5 (3×) and 7 (2×) and 9 and 6 and 8 (2×) and 3. The Clinical score in test [1] (20 mg/kg IV QODx3, day 4) was 1 (4×) and 2 (2×); in test [1] (20 mg/kg IV QODx3, day 13), 1 (2×) and 3 (2×) and 2 and 0 and 4; in test [1] (20 mg/kg IV QODx3, day 14), 1 (2×) and 3 (3×) and 2 and 0; in test [1] (20 mg/kg IV QW, day 13) it was 0 and 2 and 9 and 6 (2×) and 7 (2×) and 8 (2×) and 4; in test [1] (20 mg/kg IV QW, day 14), 0 and 2 and 9 (2×) and 7 (2×) and 6 and 8 (2×) and 5.
Regarding `CC[C@H]1CN2CCc3cc(OC)c(OC)cc3[C@@H]2C[C@@H]1C[C@H]1NCCc2cc(OC)c(OC)cc21` [Emetine, reference compound], the “infectious virus particle production” value in the test with SARS-CoV-2 [2] (1.11 uM) is 632.456 TCID50 per milliliter; in the test with SARS-CoV-2 [2] (3.33 uM) it was 632.456 TCID50 per milliliter and 430.887 TCID50 per milliliter; in the test on SARS-CoV-2 [2] (10 uM), 632.456 TCID50 per milliliter. Further, the “viral genome copy number” value was 24100000 and 12600000 and 15400000 with SARS-CoV-2 [3] (0.01 uM); 19500000 and 12600000 and 14500000 in the test with SARS-CoV-2 [3] (0.04 uM); 9690000 and 6770000 and 10700000 with SARS-CoV-2 [3] (0.12 uM); 81000 and 73500 and 71100 in the test on SARS-CoV-2 [3] (1.11 uM); 85400 and 62200 and 61600 in the test on SARS-CoV-2 [3] (3.33 uM); 58200 and 54400 and 71200 in the test on SARS-CoV-2 [3] (10 uM). The cell viability is 70.4141 and 72.6149 and 69.2712 in the test on SARS-CoV-2 [4] (0.01 uM); 77.6184 and 78.5394 and 67.5514 in the test with SARS-CoV-2 [4] (0.04 uM); 91.8387 and 89.8998 and 85.3326 in the test with SARS-CoV-2 [4] (0.12 uM); 98.5387 and 106.593 and 107.116 with SARS-CoV-2 [4] (0.37 uM); 85.9306 and 97.0439 and 95.1349 in the test on SARS-CoV-2 [4] (1.11 uM); 86.5239 and 91.9706 and 91.8345 with SARS-CoV-2 [4] (3.33 uM). Also, the cell viability in the test on SARS-CoV-2 [4] (10 uM) is 89.2076 and 95.1684 and 93.0072.
Turning to `CCn1cc(C[C@H]2C(=O)N[C@@H](CC(C)C)C(=O)N(C)[C@@H](C)C(=O)O[C@H](CCC#N)C(=O)N[C@@H](CC(F)(F)F)C(=O)N(C)[C@@H](CC(C)C)C(=O)N[C@@H](CC(F)(F)F)C(=O)N2C)c2ccccc21` [KZR-0509508] (cyclo(L[NMeA][Butanoyl(2R-oxy,4-CN)][Abu(4,4,4-F3)][NMeL][Abu(4,4,4-F3)][X3])), the “GLuc reporter raw signal (replicates)” value was 2917200 and 2920600 and 2895100 at Sec61 (HER3, Concentration 0.32); 2324600 and 2421500 and 2482600 at Sec61 (HER3, Concentration 40); 860870 and 901980 and 850270 on Sec61 (HER3, Concentration 200); 128950 and 127590 and 122180 on Sec61 (HER3, Concentration 1000); 21107 and 19954 and 21458 at Sec61 (HER3, Concentration 5000); 18661 and 19673 and 20195 on Sec61 (HER3, Concentration 25000). The “GLuc reporter raw signal (replicates)” value at Sec61 (IL2, Concentration 0.32) was 2617800 and 2680800 and 2713900; on Sec61 (IL2, Concentration 8) it was 2560100 and 2737500 and 2592900; on Sec61 (IL2, Concentration 40), 2448500 and 2433000 and 2516300; on Sec61 (IL2, Concentration 200), 2434300 and 2250900 and 2386200; at Sec61 (IL2, Concentration 1000), 1366100 and 1331100 and 1340300; at Sec61 (IL2, Concentration 5000) it was 148660 and 137160 and 137620. Further, the “GLuc reporter raw signal (replicates)” value is 72344 and 71940 and 72808 at Sec61 (IL2, Concentration 25000); 1140200 and 1151600 and 1079300 at Sec61 (PD1, Concentration 0.32); 1090400 and 1094000 and 1069700 on Sec61 (PD1, Concentration 8); 1001600 and 1054300 and 960410 at Sec61 (PD1, Concentration 40); 810270 and 826880 and 727000 on Sec61 (PD1, Concentration 200); 298160 and 288700 and 294700 on Sec61 (PD1, Concentration 1000). The “GLuc reporter raw signal (replicates)” value at Sec61 (PD1, Concentration 5000) is 19269 and 21595 and 21074; on Sec61 (PD1, Concentration 25000), 12135 and 12576 and 11044; on Sec61 (Prolactin, Concentration 0.32), 8343700 and 8651000 and 8237500; at Sec61 (Prolactin, Concentration 8), 8140000 and 8910000 and 8852700; at Sec61 (Prolactin, Concentration 40) it was 8482300 and 8946000 and 7991900; at Sec61 (Prolactin, Concentration 200), 8151300 and 9013100 and 8191700. The “GLuc reporter raw signal (replicates)” value at Sec61 (Prolactin, Concentration 1000) was 7614900 and 8029100 and 7622300; at Sec61 (Prolactin, Concentration 5000), 6257700 and 6043200 and 6299800; on Sec61 (Prolactin, Concentration 25000), 4760600 and 4742900 and 4623400; on Sec61 (TNFa, Concentration 0.32), 157540 and 153990 and 156290; at Sec61 (TNFa, Concentration 8) it was 177590; at Sec61 (TNFa, Concentration 40) it was 174140 and 177930 and 180980. In addition, the “GLuc reporter raw signal (replicates)” value is 165100 and 188550 and 172890 at Sec61 (TNFa, Concentration 200); 101080 and 103620 and 107580 at Sec61 (TNFa, Concentration 1000); 30162 and 28185 and 30634 on Sec61 (TNFa, Concentration 5000); 17845 and 17474 and 16301 on Sec61 (TNFa, Concentration 25000).
